Where two headings read alike, the source gives them in different places.
What was measured:
[1] = tested on: rabbit fetuses; details: cited from earlier work
[2] = rodents and rabbits; cited from earlier work
[3] = tested on: neonatal subject; experiment: Clinical assessments of the neonatal subject (physical/neurologic exam, CHOP INTEND, HINE-2, Bayley-4, OrSAT, ultrasound); format: in vivo, human; details: for CHOP INTEND: highest possible score 64; for Oral-motor assessment (OrSAT): maximum score 7
Description: Following birth, the neonatal subject, approximately one week and again at approximately six weeks of age, was assessed using the Hammersmith Infant Neurological Exam (HINE), Bayley Scales of Infant and Toddler Development, 4th edition (“Bayley™-4), the Children's Hospital of” Philadelphia Infant Test of Neuromuscular Disorders (CHOP INTEND), the Oral and Swallowing Abilities Tool (OrSAT), respiratory inductance plethysmography (RIP), a complete physical examination, anthropometric measurements (including vital signs, length, weight, head circumference and chest circumference), nerve conduction testing (specifically compound muscle action potential (CMAP) and motor unit number estimation (MUNE)), an ultrasound of the brain and muscles, blood and urine collection for CBC, CMP, U/A, and risdiplam PK/PD. The CBC, CMP, and U/A could be repeated at six weeks if the neonatal subject had not initiated any SMN-directed therapies, if there was a clinical indication upon physical examination, or if the one-week labs had clinically significant abnormal results.
The maximum score for the HINE-2 is 26 points, with a higher score reflecting a higher function, respectively.
Bayley™-4 is a comprehensive assessment tool for determining developmental delays in high-risk neonatal subjects. See Bayley & Aylward (2019) Bayley Scales of Infant and Toddler Development (4th ed.) technical manual. Bloomington, MN: NCS Pearson. Bayley™-4 scores from an assessment of early childhood development. Specifically, Bayley™-4 tests developmental skills such as cognitive, language, and motor skills of the neonatal subject. The scores represent how well the neonatal subject performed in these areas as compared to a group of neonatal subjects in the same age range. The Bayley™-4 mean standard score is 100 and the standard deviation is 15.
In Table 6, “CHOP INTEND” refers to a test that provides information about how strong the neonatal subject's muscles are and how well the neonatal subject can control his/her muscles. During the CHOP INTEND examination, a health care provider measures 16 types of muscle movements, which include head control (keeping the head upright), elbow flexion and knee extension (bending the joints), arm and leg mobility, and handgrip. […] All of the CHOP INTEND scores add up to one total score, with the highest possible score for the CHOP INTEND test being 64. With a score of 50 at 6 weeks and a score of 55 at 18 weeks, the neonatal subject was considered to be normal.
“OrSAT” or “Oral and Swallowing Abilities Tool” is a tool specifically designed to record structured information on different aspects related to oral, swallowing and feeding abilities in patients with type 1 SMA. See Berti (2022) Arch. Dis. Child. archdischild-2022-323899. Specifically, OrSAT includes several questions, where the responses are graded using a scoring system: each item is scored as 0 or 1 depending if the patient is able or unable to perform a given activity. Since some items are age-dependent, the number of items and the maximal score increases with an increasing age. If the neonatal subject younger than 6 months of age who cannot be assessed on swallowing semisolids or solids, the maximum score is 7, whereas if the neonatal subject is between 6 and 9 months of age, who can be assessed on this criteria, the maximum score is 10. If the neonatal subject is 10 months of age or older and can be assessed for all food consistencies, including solids, the maximum total score is 12. See Berti (2021) J. Neuromuscul. Dis. 8(4):589-601.
Muscle ultrasound was performed using a 11-mHz-linear array transducer (60 mm width) in B-mode (GE Vivid E95; GE, Chicago, IL, USA) to evaluate for muscle fasciculation in the right and left biceps, the abductor digiti minimi muscle, the quadriceps, the transverse abdominal muscle, the gastrocnemius-soleus, the lumbar paraspinals and the tongue. Thickness of the quadriceps muscle was measured. […]

Cc1cn2nc(-c3cc(=O)n4cc(N5CCNC6(CC6)C5)ccc4n3)cc(C)c2n1 [risdiplam, 7-(4,7-diazaspiro[2.5]octan-7-yl)-2-(2,8-dimethylimidazo[1,2-b]pyridazin-6-yl)-4H-pyrido[1,2-a]pyrimidin-4-one]
Findings in rabbit fetuses ([1]; at about 12 mg/kg/day): hydrocephalus, an abnormally small gall bladder, and lung variations
Findings in rabbit fetuses ([1]; dams treated at about 1 mg/kg/day to about 12 mg/kg/day): reduced weight gain and cranium or brain variations
Placental transfer [2]: crosses the placenta
Ultrasound studies Neurosonogram Muscle ([3]; 1 week): normal
General Physical Exam ([3]; 1 week to 18 weeks): Heart murmur (VSD)
Neurologic Exam ([3]; 1 week to 18 weeks): Normal, age-appropriate tone, posture,
CHOP INTEND ([3]; 1 week): 46
Oral-motor assessment (OrSAT) ([3]; 1 week): 7
Mental status ([3]; 2 weeks to 2 months): Somnolent and fussy
Ultrasound studies Neurosonogram Muscle ([3]; 6 weeks): normal
CHOP INTEND ([3]; 6 weeks): 50
Oral-motor assessment (OrSAT) ([3]; 6 weeks): 7
Bayley-4 Adaptive Behavior ([3]; 18 weeks): Behavior: 89
Bayley-4 Cognitive ([3]; 18 weeks): Cognitive: 95
Bayley-4 Communication ([3]; 18 weeks): Communication: 103
Bayley-4 Social ([3]; 18 weeks): Social: 95
Ultrasound studies Neurosonogram Muscle ([3]; 18 weeks): normal
Oral-motor assessment (OrSAT) ([3]; 18 weeks): 7
HINE-2 ([3]; 18 weeks, maximum score 26): 8
Bayley-4 Motor ([3]; 18 weeks, mean standard score 100, SD 15): Motor: 101
APGAR score ([3]; 1 minute): APGAR scores: 7
APGAR score ([3]; 5 minutes): minute), 8 (5 minutes)
Growth (weight gain) ([3]; after 2 months): Normal after
Mental status ([3]; after 2 months): Normal after
General Physical Exam ([3]; birth to 1 week): Respiratory distress
Mental status ([3]; birth to 1 week): Normal
Neurologic Exam ([3]; birth to 1 week): Normal, age- appropriate
Ultrasound studies Neurosonogram Muscle ([3]; birth to 1 week (DOL2)): normal DOL2

From patent US20240173325A1, “METHODS FOR TREATING SPINAL MUSCULAR ATROPHY” (Genentech, Inc., priority 2022, published 2024)
